Converted amounts (≈) assume the structure as drawn. Where two headings read alike, the source gives them in different places.
What was measured:
[1] = cited from earlier work
bacteria = conditions: cited from earlier work
bacterial spores = conditions: room temperature; cited from earlier work
[2] = cited from earlier work; remark: listed apart in the source
[3] = Solubility in Water (Table 1); type: physicochemical
From the text: The results in Table I below illustrates the water solubility of the free base and hydrochloride salts of the invention versus chlorhexidine.

Ps. aer. = test: Minimum inhibitory concentration, Ps. aer. (Gram negative); type: cell-based
Procedure: (§1) The minimum inhibitory concentrations (MIC) against different Gram positive and Gram negative microorganisms, and fungi, were determined and the results are shown in Table 2 below.

E. Coli = test: Minimum inhibitory concentration, E. Coli (Gram negative); type: cell-based; conditions: Escherichia coli
Procedure: as §1

Strept. py. = test: Minimum inhibitory concentration, Strept. py. (Gram positive); type: cell-based
Procedure: as §1

Staph. aur. = test: Minimum inhibitory concentration, Staph. aur. (Gram positive); type: cell-based
Procedure: as §1

Fungi = test: Minimum inhibitory concentration, Fungi; type: cell-based
Procedure: as §1

[4] = HCl salt, pH 5.5, read-out: Solubility in water, HCl Salt (pH 5.5)
[5] = free base, pH 8.5, read-out: Solubility in water, Free Base (pH 8.5)

Row | SMILES | water solubility for the free base [1] | antibacterial activity at low pH (bacteria; pH below 5) | antibacterial activity, pH dependence (bacteria; pH range 5-8) | activity against bacterial spores (bacterial spores) | compatibility in formulations containing surface active agents [2] | solubility [3, 4] | solubility [3, 5] | MIC (Ps. aer.) | MIC (E. Coli) | MIC (Strept. py.) | MIC (Staph. aur.) | MIC (Fungi)
1 | [H]/N=C(\N/C(=N/[H])NCCCCCCNC(=N)NC(=N)Nc1ccc(Cl)cc1)Nc1ccc(Cl)cc1 [Chlorhexidine, 1,6-bis(4-chlorophenylbiguanido)-hexane] | low water solubility | deteriorates | pH dependent | inactivity against bacterial spores | incompatability | 18 mg/mL | 0.08 mg/mL (≈ 158 µM) | – | – | – | – | –
2 | N=C(NCCCCCCNC(=N)NC(=N)Nc1ccc(Cl)cc1)NC(=N)Nc1ccc(Cl)cc1 [Chlorhexidine gluconate, reference compound] | – | – | – | – | – | – | – | 50 µg/mL | 5 µg/mL | 5 µg/mL | 2.5 µg/mL | > 200 µg/mL
3 | N=C(NCCCCCCNC(=N)NC(=N)NCCN1CCCC1=O)NC(=N)NCCN1CCCC1=O [Ex. 4, 1,6-Bis[1-(2-Pyrrolidonylethyl)biguanido]hexane:2HCl] | – | – | – | – | – | 500 mg/mL | 50 mg/mL | 250 µg/mL | 250 µg/mL | ≤ 50 µg/mL | ≤ 100 µg/mL | 100 µg/mL
4 | N=C(NCCOCCOCCNC(=N)NC(=N)NCCN1CCCC1=O)NC(=N)NCCN1CCCC1=O [Ex. 6, 1,2-Bis[1-(2-pyrrolidonylethyl)-5-(2-Ethoxybiguanido)]ethane:2HCl] | – | – | – | – | – | 500 mg/mL | 500 mg/mL | ≤ 100 µg/mL | 100 µg/mL | ≤ 50 µg/mL | > 500 µg/mL | ≤ 50 µg/mL
5 | N=C(NCCCCCCCCCCCCNC(=N)NC(=N)NCCN1CCCC1=O)NC(=N)NCCN1CCCC1=O [Ex. 5, 1,12-Bis[1-(2-Pyrrolidonylethyl)biguanido]dodecane:2HCl] | – | – | – | – | – | 500 mg/mL | 20 mg/mL | > 500 µg/mL | 250 µg/mL | ≤ 50 µg/mL | ≤ 50 µg/mL | ≤ 50 µg/mL

Source: US4952704A, “Bis-(pyrrolidonyl alkylene) biguanides” (GAF Chemicals Corporation, priority 1989, dated 1990)
